# Assay results taken from patent publication US6787532B2, “Formulation containing anti-inflammatory androstane derivatives” (SmithKline Beecham Corporation, priority 2000, dated 2004).
# pEC50: −log10 of the molar value. “Also recorded” adds a separate entry of the source. Like-named read-outs stand apart in the source and are kept apart here.
# Key:
# [1] = Pharmacokinetics after intravenous administration in the anaesthetised pig; assay type: in vivo; conditions: intravenous mixture of the two compounds at 0.1 mg/kg
# Text: The clearance of these two glucocorticoids is similar is this experimental pig model.
# [2] = Solubility in water with surfactants and co-solvating agents; assay type: physicochemical
# Text: As noted above, this improved process permits solutions of higher concentration to be prepared than is possible by conventional techniques.
# [3] = Pharmacokinetics after intra-tracheal dry powder dosing in the pig; assay type: in vivo; conditions: for time after dosing up to which quantifiable in plasma / Cmax / AUC(0-inf): pig; for time after dosing up to which quantifiable in plasma: intra-tracheal 1 mg, LLOQ 10 and 20 pg/mL; for Cmax / AUC(0-inf): plasma, 1 mg; for Cmax: inhaled or intranasal; for AUC(0-inf): iv, compound (I) calculated with IV half-life
# Protocol: Serial blood samples were taken for up to 8 h following dosing.
# [4] = Pharmacokinetics after intravenous and oral dosing in rats; assay type: in vivo; conditions: male, Wistar Han, plasma, rat; for clearance: IV 0.1 mg/kg
# [5] = system: thymus involution; assay: Rat model of thymus involution; assay type: in vivo; conditions: 3 daily IT doses of 100 μg
# [6] = system: lung eosinophilia; assay: Ovalbumin sensitised Brown Norway rat eosinophilia model; assay type: in vivo; conditions: single intra-tracheal dose of 30 μg, suspension in saline, 30 min prior to ovalbumin challenge
# Protocol: Pharmacological activity in vivo was assessed in an-ovalbumin sensitised Brown Norway rat eosinophilia model. This model is designed to mimic allergen induced lung eosinophilia, a major component of lung inflammation in asthma.
# [7] = molecular target: T1, glucocorticoid receptor (Homo sapiens, UniProt P04150); assay: In vitro functional glucocorticoid assays, metabolite versus parent; assay type: cell-based
# T1 sequence (P04150 1-777): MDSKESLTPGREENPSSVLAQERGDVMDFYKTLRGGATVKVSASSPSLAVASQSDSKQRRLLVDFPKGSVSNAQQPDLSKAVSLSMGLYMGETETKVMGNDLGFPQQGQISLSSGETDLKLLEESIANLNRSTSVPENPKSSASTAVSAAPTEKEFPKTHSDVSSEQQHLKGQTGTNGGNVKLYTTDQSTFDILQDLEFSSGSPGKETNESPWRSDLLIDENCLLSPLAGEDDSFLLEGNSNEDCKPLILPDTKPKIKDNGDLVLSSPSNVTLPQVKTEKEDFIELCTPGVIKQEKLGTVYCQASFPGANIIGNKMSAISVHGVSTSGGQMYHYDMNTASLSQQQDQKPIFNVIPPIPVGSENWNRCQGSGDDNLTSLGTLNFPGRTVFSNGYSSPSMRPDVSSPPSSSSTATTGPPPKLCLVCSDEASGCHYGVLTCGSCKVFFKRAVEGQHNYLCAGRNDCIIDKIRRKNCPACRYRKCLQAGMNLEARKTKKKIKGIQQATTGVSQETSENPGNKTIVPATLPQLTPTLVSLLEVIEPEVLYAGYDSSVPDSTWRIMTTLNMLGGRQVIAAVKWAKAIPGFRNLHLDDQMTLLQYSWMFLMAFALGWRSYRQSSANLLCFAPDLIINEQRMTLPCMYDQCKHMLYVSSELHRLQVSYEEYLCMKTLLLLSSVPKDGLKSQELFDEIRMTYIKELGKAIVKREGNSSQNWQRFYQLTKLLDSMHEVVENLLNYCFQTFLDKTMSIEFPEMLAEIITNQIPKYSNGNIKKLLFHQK
# Protocol: Compound (I) wherein R represents furan-2-yl undergoes highly efficient hepatic metabolism to yield the 17-β carboxylic acid (X) as the sole major metabolite in rat and human in vitro systems. […] Pharmacological activity was assessed in a functional in vitro assay of glucocorticoid agonist activity which is generally predictive of anti-inflammatory or anti-allergic activity in vivo.
# [8] = molecular target: T2, glucocorticoid receptor (GR) (Homo sapiens, UniProt P04150); assay: Transactivation (GR): A549 cells with renilla luciferase reporter under glucocorticoid response elements; assay type: cell-based; conditions: renilla luciferase GRE reporter, read-out: Transactivation (GR) ED50
# Text: (§1) The glucocorticoid receptor (GR) can function in at least two distinct mechanisms, by upregulating gene expression through the direct binding of GR to specific sequences in gene promotors, and by downregulating gene expression that is being driven by other transcription factors (such as NFκB or AP-1) through their direct interaction with GR.
# (§2) The first cell line contains the firefly luciferase reporter gene under the control of a synthetic promoter that specifically responds to activation of the transcription factor NFκB when stimulated with TNFα. The second cell line contains the renilla luciferase reporter gene under the control of a synthetic promotor that comprises 3 copies of the consensus glucocorticoid response element, and which responds to direct stimulation by glucocorticoids. Simultaneous measurement of transactivation and transrepression was conducted by mixing the two cell lines in a 1:1 ratio in 96 well plate (40,000 cells per well) and growing overnight at 37° C. Test compounds were dissolved in DMSO, and added to the cells at a final DMSO concentration of 0.7%. After incubation for 1 h 0.5 ng/ml TNFα (R&D Systems) was added and after a further 15 hours at 37° C., the levels of firefly and renilla luciferase were measured using the Packard Firelite kit following the manufacturers' directions. Dose response curves were constructed from which EC50 values were determined.
# [9] = molecular target: T2, glucocorticoid receptor (GR); assay: Transrepression (NFκB): A549 cells with firefly luciferase NFκB reporter, TNFα stimulated; assay type: cell-based; conditions: 0.5 ng/ml TNFα, read-out: Transrepression (NFκB) ED50
# Text: as §1, §2
# [10] = 5% Tyloxapol, aqueous with cosolvent or surfactant or cyclodextrin, 5% Tyloxapol, process performed at 60-70° C., read-out: solubility
# [11] = 5% Tyloxapol, aqueous with cosolvent or surfactant or cyclodextrin, 5% Tyloxapol, process performed at room temperature, read-out: solubility
# [12] = water, aqueous with cosolvent or surfactant or cyclodextrin, in water, Triton X-100 2% w/w, read-out: Solubility
# [13] = water, aqueous with cosolvent or surfactant or cyclodextrin, in water, Tyloxapol 2% w/w, read-out: Solubility
# [14] = water, aqueous with cosolvent or surfactant or cyclodextrin, in water, Tyloxapol 5% w/w and PEG200 10% w/w, read-out: Solubility
# [15] = water, aqueous with cosolvent or surfactant or cyclodextrin, in water, Tyloxapol 5% w/w, read-out: Solubility
# [16] = water, in water, no surfactant, read-out: Solubility
# [17] = Pig 1, intra-tracheal dry powder 1 mg
# [18] = Pig 2, intra-tracheal dry powder 1 mg
"pharmacokinetic parameters, compound (I) versus fluticasone propionate [1]","solubility [2, 10] [µg/mL]","solubility [2, 11] [µg/mL]","solubility [2, 12] [µg/mL]","solubility [2, 13] [µg/mL]","solubility [2, 14] [µg/mL]","solubility [2, 15] [µg/mL]","solubility [2, 16] [µg/mL]",time after dosing up to which quantifiable in plasma [3],"Cmax [3, 17] [ng/mL]","Cmax [3, 18] [ng/mL]","AUC(0-inf) [3, 17] [ng·h/mL]","AUC(0-inf) [3, 18] [ng·h/mL]",clearance [4] [mL/min/kg],reduction of thymus weight [5] [%],SMILES,further results
the same,344,233,266,95,836,307,< 1,up to 2 hours,0.117,0.081,0.254,0.221,47.3,67,"C[C@@H]1C[C@H]2[C@@H]3C[C@H](F)C4=CC(=O)C=C[C@]4(C)[C@@]3(F)[C@@H](O)C[C@]2(C)[C@@]1(OC(=O)c1ccco1)C(=O)SCF [Compound of Formula (I), 6α, 9α-difluoro-17α-[(2-furanylcarbonyl)oxy]-11β-hydroxy-16α-methyl-3-oxo-androsta-1,4-diene-17β-carbothioic acid S-fluoromethyl ester]","solubility ([2]; water, aqueous with cosolvent or surfactant or cyclodextrin, in water, Triton X-100 0.5% w/w, read-out: Solubility): 18 µg/mL; solubility ([2]; water, aqueous with cosolvent or surfactant or cyclodextrin, in water, Triton X-100 5% w/w and PEG200 10% w/w, read-out: Solubility): 840 µg/mL; solubility ([2]; water, aqueous with cosolvent or surfactant or cyclodextrin, in water, Triton X-100 5% w/w, read-out: Solubility): 549 µg/mL; solubility ([2]; water, aqueous with cosolvent or surfactant or cyclodextrin, in water, Triton X-305 5% w/w, read-out: Solubility): 204 µg/mL; solubility ([2]; water, aqueous with cosolvent or surfactant or cyclodextrin, in water, Tyloxapol 5% w/w and Dextrose 4% w/w, read-out: Solubility): 526 µg/mL; solubility ([2]; water, aqueous with cosolvent or surfactant or cyclodextrin, in water, Tyloxapol 5% w/w and Propylene glycol 10% w/w, read-out: Solubility): 422 µg/mL; solubility ([2]; water, aqueous with cosolvent or surfactant or cyclodextrin, in water, Tyloxapol 5% w/w, no co-solvating agent, read-out: Solubility): 344 µg/mL; solubility ([2]; water, aqueous with cosolvent or surfactant or cyclodextrin, in water, Tyloxapol 6% w/w, read-out: Solubility): 346 µg/mL; solubility ([2]; water, aqueous with cosolvent or surfactant or cyclodextrin, in water, Tyloxapol 7.5% w/w, read-out: Solubility): 576 µg/mL; solubility ([2]; water, aqueous with cosolvent or surfactant or cyclodextrin, in water, Tyloxapol 10% w/w, read-out: Solubility): 585 µg/mL; systemic exposure compared to fluticasone propionate ([3]; anaesthetised pigs, dry powder delivery to the lungs): markedly reduced systemic exposure; also recorded: significantly lower exposure; bioavailability ([4]; oral, 0.1 mg/kg, oral 0.1 mg/kg and IV 0.1 mg/kg): 0.9%; inhibition of lung eosinophilia [6]: 69%"
the same,133,87,69,41,207,133,< 1,up to 8 hours,0.277,0.218,0.455,0.495,45.2,78,"CCC(=O)O[C@]1(C(=O)SCF)[C@H](C)C[C@H]2[C@@H]3C[C@H](F)C4=CC(=O)C=C[C@]4(C)[C@@]3(F)[C@@H](O)C[C@@]21C [Fluticasone propionate, 6α, 9α-Difluoro-17α-(1-oxopropoxy)-11β-hydroxy-16α-methyl-3-oxo-androsta-1,4-diene-17-0-carbothioic acid S-fluoromethyl ester, reference compound]","solubility ([2]; in water, Labrasol 10% w/w): None detected; solubility ([2]; in water, Triton X-45 5% w/w): None detected; solubility ([2]; water, aqueous with cosolvent or surfactant or cyclodextrin, in water, Sodium chenodesoxycholate 5% w/w, read-out: Solubility): 5.9 µg/mL; solubility ([2]; water, aqueous with cosolvent or surfactant or cyclodextrin, in water, Sodium cholate 2% w/w, read-out: Solubility): 11 µg/mL; solubility ([2]; water, aqueous with cosolvent or surfactant or cyclodextrin, in water, Sodium cholate 20% w/w, read-out: Solubility): 140 µg/mL; solubility ([2]; water, aqueous with cosolvent or surfactant or cyclodextrin, in water, Tyloxapol 5% w/w and Phospatidyl choline 1% w/w, read-out: Solubility): 197 µg/mL"
,,,,,,,,,,,,,,,C[C@@H]1CC2C3C[C@H](F)C4=CC(=O)C=C[C@]4(C)[C@@]3(F)[C@@H](O)C[C@]2(C)[C@@]1(OC(=O)c1ccco1)C(=O)O (stereo partly shown) [Metabolite (X)],fold less active than the parent compound [7]: > 1000 fold; pEC50 [8]: > 6.60; pEC50 [9]: < 6.00
